# Columns and labels:
# [1] = system: neutrophilic infiltration in mouse lung; experiment: Effect on lipopolysaccharide-induced neutrophilic infiltration in mouse lung (BAL fluid neutrophil count); assay type: in vivo; conditions: oral, 30 minutes before LPS aerosol, BAL fluid neutrophils after 5 hours, mouse (BALB/c, male)
# Procedure: Effect of Lipopolysaccharide Induction on Neutrophilic Infiltration in Mouse Lung
# A compound to be tested was orally administrated to a mouse (BALB/c, male), and after 30 minutes, the mouse was placed in a plastic container. Lipopolysaccharide (0.3 mg/mL) dissolved in physiological saline was aerosolized with an ultrasonic wave nebulizer (NE-U17, OMRON Corporation), and exposed to the mouse for 10 minutes. After 5 hours, the anesthetized mouse was sacrificed by exsanguination. A cannula was inserted in the respiratory tract and bronchoalveolar lavage (BAL) with 1 mL of […] liquid containing 0.4% sodium citrate was carried out. This operation was repeated 3 times, to obtain a BAL fluid. The BAL fluid was centrifuged at 4° C. and ×200 g for 5 minutes, and the pellet was suspended in a physiological saline containing 0.1% BSA. The number of white blood cells was counted using Turks solution with a microscope, and the total white blood cell count was calculated. The white blood cells were fixed on a glass slide using Cytospin 3 (Thermo BioAnalysis Japan K. K.). The cells were stained with Diff-Quik (SYSMEX INTERNATIONAL REAGENTS CO., LTD.), and the number thereof was counted with a microscope, and the neutrophil ratio was calculated. The neutrophil ratio was multiplied by the total white blood cell count to calculate the total neutrophil count. An effect of the compound to be tested represents a percentage (%) of suppression ratio relative to the neutrophil count in a control.
# [2] = target: T1, human FPRL1 (Homo sapiens, UniProt P25090); experiment: Measurement test of agonist activity on human FPRL1 (test of calcium mobilization in HEK293 cells transfected with human FPRL1 and Gα15); assay type: cell-based; conditions: read-out: Efficacy EC50
# T1 construct: expressed in transfected cells; host or cells: HEK293 (JCRB9068, NIBIO), transient co-transfection of pCMV-script vectors with Lipofectamine 2000
# T1 sequence (P25090 1-351): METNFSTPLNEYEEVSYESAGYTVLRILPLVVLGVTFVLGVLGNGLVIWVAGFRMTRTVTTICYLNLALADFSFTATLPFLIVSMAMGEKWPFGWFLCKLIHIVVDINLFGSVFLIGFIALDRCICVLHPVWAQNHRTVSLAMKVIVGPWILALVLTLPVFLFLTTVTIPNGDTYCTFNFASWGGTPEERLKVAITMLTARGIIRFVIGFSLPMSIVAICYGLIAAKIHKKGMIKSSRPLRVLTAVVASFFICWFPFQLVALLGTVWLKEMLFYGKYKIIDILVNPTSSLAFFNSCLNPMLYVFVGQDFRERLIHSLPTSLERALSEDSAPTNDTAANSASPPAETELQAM
# Description: Measurement Test of Agonist Activity on Human FPRL1
# (1-1) Construction of Human FPRL1 Expression Vector
# Human FPRL (SEQ ID NO: 3) was amplified in a PCR reaction from cDNA derived from a monocytic leukemia cell line THP-1 (TIB-202, ATCC) as a template using a forward primer shown in SEQ ID NO: 1, a reverse primer shown in SEQ ID NO: 2, and KOD-plus-ver. 2 (KOD-211, TOYOBO CO., LTD.). […] 2 (LGK-201, TOYOBO CO., LTD.). The ligation product was transformed into DH5α (DNA-901, TOYOBO CO., LTD.), cultured on a 100 μg/mL kanamycin-containing LB medium, and purified with HiSpeed Plasmid Maxi Kit (12662, QIAGEN).
# (1-2) Construction of Human Gα15 Expression Vector
# 2. The amplified PCR product and pCMV-script vector were digested with Hind III and XhoI, and the resultant digest was ligated with Ligation high ver. 2. The ligation product was transformed into DH5α, cultured on a 100 μg/mL kanamycin-containing LB medium, and purified with HiSpeed Plasmid Maxi Kit.
# (2-1) Method for Culturing and Subculturing HEK293
# HEK293 (JCRB9068, NIBIO) was cultured in an incubator at 5% CO2 and 37° C. using DMEM (11885-092, GIBCO) containing 10% FBS and 1× Penicillin-Streptomycin (15140-122, GIBCO).
# (2-2) Introduction of Human FPRL1 and Gα15 Expression Vectors
# The cells were inoculated in a Collagen Type 1 coated 6-well plate (4810-010, IWAKI) to 5×10^5 cells/2.5 mL/well and cultured overnight. On the next day, human FPRL1 and Gα15 expression vectors were introduced using Lipofectamine 2000 transfection reagent (11668-019, Life technologies). First, the human FPRL1 and Gα15 expression vectors were diluted with Opti-MEM I Reduced Serum Medium (31985-070, GIBCO) to 2 μg/250 μL/well and Lipofectamine 2000 transfection reagent was diluted with Opti-MEM I Reduced Serum Medium to be 4 μL/250 μL/well. The vectors and reagent were softly diffused, and incubated at room temperature for 5 minutes. The vector solution was mixed with Lipofectamine 2000 transfection reagent in equal amounts. In order to form a complex of the vectors and Lipofectamine 2000 transfection reagent, the mixture was incubated at room temperature for 20 minutes, and added at 500 μL/well to the medium of inoculated cells. The treated cells were cultured for 24 hours, inoculated in Poly-D-Lysine coated 96-well plate (356640, BD Biosciences) at a cell density of 7×10^4 cells/100 μL/well, and cultured for another 24 hours. The resultant cells were used in a measurement test of calcium mobilization in the cells.
# (3) Evaluation of Agonist Activity on Human FPRL1 (Test of Calcium Mobilization in Cell)
# An appropriate amount of each test compound was first weighed, and dissolved to 10^−2 M by addition of dimethyl sulfoxide (DMSO). […] The plate dispensed with compound solutions was set in Flexstation (Molecular Devices, LLC.) until measurement.
# Subsequently, 10 mL of assay buffer and 100 μL of probenecid solution (dissolved by addition of 1 mL of assay buffer to a 250 mM stock) were sufficiently mixed and dissolved in Fluo-4 NW dye mix. The medium of cells inoculated on the previous day was removed, the dissolved Fluo-4 NW dye mix was added in an amount of 90 μL/well, and a reaction was caused in the dark at 37° C. for 45 minutes. The cells after the reaction and chips for addition of the compound were set in Flexstation, and variation in fluorescence intensity over time after addition of the compound was measured [amount of added compound=10 μL (final concentration 10^−5 M to 10^−12 M), excitation wavelength: 485 nm, measured wavelength: 525 nm, 1.5 sec×54 read]. A value was calculated by subtracting a base value during addition of DMSO from the maximum value of relative fluorescence unit, and analyzed. All the measurement data were analyzed with Prism 4 that was a data analysis tool.
SMILES,EC50 [2] [nM],other results
"COc1ccc(C[C@H](NC(=O)Nc2ccc(Cl)cc2)c2nnn(CCO)n2)cc1 [Example 1-1, (−)-(S)-1-(4-Chlorophenyl)-3-{1-[2-(2-hydroxyethyl)-2H-tetrazol-5-yl]-2-(4-methoxyphenyl)ethyl}urea]",0.25,Suppression Ratio (%) ([1]; dose 1 mg/kg): 95.7%
"N#Cc1ccc(C[C@H](NC(=O)Nc2ccc(Cl)cc2)c2nnn(CCO)n2)cc1 [Example 1-5, (S)-1-(4-chlorophenyl)-3-{2-(4-cyanophenyl)-1-[2-(2-hydroxyethyl)-2H-tetrazol-5-yl]ethyl}urea]",0.57,–
"O=C(Nc1ccc(Cl)cc1)N[C@@H](Cc1ccc(Cl)cc1)c1nnn(CCO)n1 [Example 1-7, (−)-(S)-1-(4-chlorophenyl)-3-{2-(4-chlorophenyl)-1-[2-(2-hydroxyethyl)-2H-tetrazol-5-yl]ethyl}urea]",2.7,–
"O=C(Nc1ccc(F)cc1)N[C@@H](Cc1ccc(Cl)cc1)c1nnn(CCO)n1 [Example 1-8, (−)-(S)-1-{2-(4-chlorophenyl)-1-[2-(2-hydroxyethyl)-2H-tetrazol-5-yl]ethyl}-3-(4-fluorophenyl)urea]",1.37,–
"CCc1ccc(C[C@H](NC(=O)Nc2ccc(Cl)cc2)c2nnn(CCO)n2)cc1 [Example 1-11, (S)-1-(4-chlorophenyl)-3-{2-(4-ethylphenyl)-1-[2-(2-hydroxyethyl)-2H-tetrazol-5-yl]ethyl}urea]",0.22,–
"CCc1ccc(C[C@H](NC(=O)Nc2ccc(Cl)cc2)c2noc(N(C)CCO)n2)cc1 [Example 1-15, (S)-1-(4-chlorophenyl)-3-(2-(4-ethylphenyl)-1-{5-[(2-hydroxyethyl)(methyl)amino]-1,2,4-oxadiazol-3-yl}ethyl)urea]",0.63,Suppression Ratio (%) ([1]; dose 3 mg/kg): 95.7%
"COc1ccc(C[C@H](NC(=O)Nc2ccc(Cl)cc2)c2nnc(CCO)o2)cc1 [Example 1-20, (S)-1-(4-chlorophenyl)-3-{1-[5-(2-hydroxyethyl)-1,3,4-oxadiazol-2-yl]-2-(4-methoxyphenyl)ethyl}urea]",0.17,Suppression Ratio (%) ([1]; dose 3 mg/kg): 94%
"CCc1ccc(C[C@H](NC(=O)Nc2ccc(Cl)cc2)c2nnc(CCO)o2)cc1 [Example 1-73, (−)-(S)-1-(4-chlorophenyl)-3-(2-(4-ethylphenyl)-1-(5-(3-hydroxyethyl)-1,3,4-oxadiazol-2-yl)ethyl)urea]",0.73,–
"COc1ccc(CC(Cc2nnc(O)o2)NC(=O)Nc2ccc(Cl)cc2)cc1 (centres unmarked) [Example 1-75, 1-(4-chlorophenyl)-3-(1-(5-hydroxy-1,3,4-oxadiazol-2-yl)-3-(4-methoxyphenyl)propan-2-yl)urea]",1.41,–
COc1ccc(CC(NC(=O)Nc2ccc(Cl)cc2)/C(N)=N/O)cc1 (centres unmarked) [Example 4],0.34,–
"CNC(=O)c1ncoc1[C@H](Cc1ccc(OC)cc1)NC(=O)Nc1ccc(Cl)cc1 [Example 14-3, (S)-5-(1-(3-(4-chlorophenyl)ureido)-2-(4-methoxyphenyl)ethyl)-N-methyl-oxazole-4-carboxamide]",0.22,–
"COc1ccc(C[C@H](NC(=O)Nc2ccc(Cl)cc2)c2ocnc2C(=O)N(C)C)cc1 [Example 14-4, (S)-5-(1-(3-(4-chlorophenyl)ureido)-2-(4-methoxyphenyl)-ethyl)-N,N-dimethyloxazole-4-carboxamide]",0.3,–
"CN(CCO)c1nc([C@H](Cc2ccc(Cl)cc2)NC(=O)Nc2ccc(Cl)cc2)no1 [Example 18-11, (S)-1-(4-chloro-phenyl)-3-(2-(4-chlorophenyl)-1-(5-((2-hydroxy-ethyl)(methyl)-amino)-1,2,4-oxadiazol-3-yl)ethyl)urea]",0.3,–
"N/C(=N\C(=O)CCO)[C@H](Cc1ccc(Cl)cc1)NC(=O)Nc1ccc(Cl)cc1 [Example 26-5 (B), (S)-N-{3-(4-chlorophenyl)-2-[3-(4-chloro-phenyl)ureido]-1-iminopropyl}-3-hydroxypropan-amide]",0.66,Suppression Ratio (%) ([1]; dose 3 mg/kg): 86%

# Now from value to compound, other results behind:
EC50 [2] [nM],SMILES,other results
0.56,"CCc1ccc(C[C@H](NC(=O)Nc2ccc(Cl)cc2)/C(N)=N/OCCO)cc1 [Example 19-1, (+)-(S,Z)-2-[3-(4-Chlorophenyl)ureido]-3-(4-ethylphenyl)-N′-(2-hydroxyethoxy)propanimidamide]",Suppression Ratio (%) ([1]; dose 3 mg/kg): 96.9%
0.2,"N/C(=N\OCCO)[C@H](Cc1ccc(Cl)cc1)NC(=O)Nc1ccc(Cl)cc1 [Example 22-2, (+)-(S,Z)-3-(4-chlorophenyl)-2-(3-(4-chloro-phenyl)ureido)-N′-(2-hydroxy-ethoxy)propan-imidamide]",–
0.15,"COc1ccc(C[C@H](NC(=O)Nc2ccc(Cl)cc2)/C(N)=N/C(=O)CCO)cc1 [Example 26-2, (S)-N-{2-[3-(4-chlorophenyl)-ureido]-1-imino-3-(4-methoxy-phenyl)propyl}-3-hydroxypropanamide]",–
0.41,"COc1ccc(CC(NC(=O)Nc2ccc(Cl)cc2)/C(N)=N/C(=O)CO)cc1 (centres unmarked) [Example 26-11, N-{2-[3-(4-chlorophenyl)-ureido]-1-imino-3-(4-methoxy-phenyl)propyl}-2-hydroxyacetamide]",–
8.45,"COc1ccc(CC(CO)NC(=O)Nc2ccc(Br)cc2)cc1 (centres unmarked) [Example 31-25, 1-(4-bromo-phenyl)-3-(1-hydroxy-3-(4-methoxyphenyl)-propan-2-yl)urea]",–
4.12,COc1ccc(C[C@H](CO)NC(=O)Nc2ccc(Cl)cc2)cc1 [Example 31-29],Suppression Ratio (%) ([1]; dose 10 mg/kg): 95.5%
